Where only a bound is given, the exact number is not on record here.

One assay deals with T1, human PLC-β2 (Homo sapiens, UniProt Q00722).
T1 construct: made in house; host or cells: Sf9 cells (Spodoptera frugiperda), recombinant baculovirus
T1 sequence (Q00722 whole entry): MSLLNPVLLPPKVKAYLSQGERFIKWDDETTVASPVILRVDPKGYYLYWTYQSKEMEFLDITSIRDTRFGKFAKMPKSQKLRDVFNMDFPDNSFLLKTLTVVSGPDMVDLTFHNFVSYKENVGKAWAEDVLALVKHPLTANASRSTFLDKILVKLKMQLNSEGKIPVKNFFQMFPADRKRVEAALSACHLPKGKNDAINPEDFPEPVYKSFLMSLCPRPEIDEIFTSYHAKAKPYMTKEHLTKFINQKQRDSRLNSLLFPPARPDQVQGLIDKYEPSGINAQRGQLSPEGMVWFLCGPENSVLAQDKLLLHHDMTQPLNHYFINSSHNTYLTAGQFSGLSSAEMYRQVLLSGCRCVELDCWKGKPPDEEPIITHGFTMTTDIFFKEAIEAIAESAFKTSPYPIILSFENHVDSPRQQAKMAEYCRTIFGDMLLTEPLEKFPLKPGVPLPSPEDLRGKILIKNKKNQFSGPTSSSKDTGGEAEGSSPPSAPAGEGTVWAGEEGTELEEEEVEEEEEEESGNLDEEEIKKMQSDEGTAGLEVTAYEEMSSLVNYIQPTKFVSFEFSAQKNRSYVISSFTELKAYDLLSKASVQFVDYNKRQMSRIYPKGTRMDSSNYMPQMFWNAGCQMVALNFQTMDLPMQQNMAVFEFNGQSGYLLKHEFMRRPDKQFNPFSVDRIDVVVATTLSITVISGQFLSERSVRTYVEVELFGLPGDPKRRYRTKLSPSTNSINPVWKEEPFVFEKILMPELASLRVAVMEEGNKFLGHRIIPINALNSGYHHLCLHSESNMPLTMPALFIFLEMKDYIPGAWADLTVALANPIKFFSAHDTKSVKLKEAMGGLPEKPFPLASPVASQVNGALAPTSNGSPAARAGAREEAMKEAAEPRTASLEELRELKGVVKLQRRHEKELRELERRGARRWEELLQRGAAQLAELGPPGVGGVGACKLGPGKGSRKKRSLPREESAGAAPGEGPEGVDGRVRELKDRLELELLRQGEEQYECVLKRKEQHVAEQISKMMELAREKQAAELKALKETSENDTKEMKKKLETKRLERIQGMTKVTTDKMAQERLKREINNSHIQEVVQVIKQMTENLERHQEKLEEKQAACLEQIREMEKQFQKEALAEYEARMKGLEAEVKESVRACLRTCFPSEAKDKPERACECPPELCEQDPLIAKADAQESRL
Nature of the assay: PLC assay using FlashPlates (immobilized [3H]PIP2 substrate, 96-well). It counts as biochemical. To be noted: hydrolysis of immobilized [3H]PIP2; purified recombinant human PLC-β2 or cytosolic human PLC-β2. The source says: The hydrolysis of phosphatidylinositol-4,5-bisphosphate (PIP2) by a specific phospholipase C-β2 (PLC-β2) produces two intracellular messengers, diacylglycerol (DAG) and inositol 1,4,5-trisphosphate (IP3), which mediate the activation of protein kinase C and intracellular Ca^2+ release. A conventional organic solvent extraction method is widely used for PLC assays to isolate IP3 from the substrate PIP2. The conventional PLC-β2 assay, however is terminated by addition of acidified organic solvents and subsequent extraction and phase separation. […] Accordingly, a preferred method to test the compounds of the present invention, was developed utilizing a 96-well plate assay for PLC-β2 using immobilized radiolabeled substrate to quantitatively measure the reduction in the substrate level without a need for organic solvent extraction. The automated PLC-β2 assay described herein provides a convenient method for quantitative measurement of phospholipase C activities in a high throughput fashion.
Ninety-six well Phospholipid FlashPlates were coated with 0.2 mL of 50 mM Tris/HCl (pH 7.4), 0.01% Ac-BSA and 50,000 cpm of ^[3H]PIP2 (phosphatidylinositol-4,5-bisphosphate) at 4° C. for 72 h. The wells were aspirated and washed twice with PBS. The reactions were conducted directly in the wells in PLC reaction buffer containing 50 mM Tris/HCl (pH 7.2), 2.75 mM EDTA (pH 7.3), 80 mM KCl, 10 mM LiCl, 0.04% DOC and 2 mM CaCl2 in the absence or presence of the purified recombinant human PLC-β2 (prepared as described hereafter) or cytosolic human PLC-β2 from […]. Reduction of radioactivity was monitored by a Packard TopCount instrument (Packard Instrument Company, Conn., USA).
Suspension cultures of Sf9 cells were maintained in a spinner flask at 27° C. and stirred at 90 rpm. The cells were grown in Grace's media supplemented with 10% (v/v) fetal bovine serum, 3.3 g/l yeastolate, 3.3 g/l lactalbumin hydrosylate, glutamine (6.4 mM final), 50 µg/ml gentamicin, and 50 μg/ml kanamycin. Suspension of Sf9 cells (1.0×10^6 cells/ml) were infected with 5 pfu/cell of recombinant baculovirus encoding PLC-β2 and incubated at 27° C. for 72 h. The cells were collected by centrifugation (500×g, 7 min, 4° C.) and disrupted by hypotonic lysis buffer containing 20 mM Tris/HCl, pH 7.4, 5 mM MgCl2, 2 mM EGTA, 200 βM PMSF, 200 βM benzamidine and 1 βM pepstatin A. The lysate was sonicated on ice and the nuclei and unbroken cells removed by centrifugation (500×g, 5 min, 4° C.). The supernatant was recovered and clarified by centrifugation (34,000 rpm, 60 min, 4° C.). The supernatant was used as a crude cytosolic fraction (Paterson, A., Boyer, J. L., Watts, V. J., Morris, A. J., Price, E. M., Harden, T. K. (1995) Concentration of enzyme-dependent activation of PLC β1 and PLC β2 by Gα11 and βγ subunits. Cellular Signalling 7, 709-720).
Crude cytosol prepared from Sf9 cells expressing PLC-β2 was purified initially by chromatography on a 10 ml column of Q-Sepharose FF, equilibrated in buffer A (25 mM HEPES, pH 7.2, 2 mM DTT, 2 mM EDTA, 2 mM EGTA, 200 μM PMSF, 200 μM benzamidine, 1 μM pepstatin A containing 10 mM NaCl). The column was washed with 20 ml of equilibration buffer and eluted with a 200-ml gradient of 110-410 mM NaCl in buffer A. The fractions containing PLC activity were pooled and diluted with buffer A. The diluted enzyme was applied to a 4 ml column of heparin-SepharoseCL-6B equilibrated in buffer A and the column washed with 70 ml of buffer A. The column was eluted with 80 ml of gradient of 0-1.0 M NaCl in buffer A, the column eluate collected in 3 ml fractions. […]
As for `O=C(Nc1ccccc1)Nc1cc(CO)ccc1N1CCN(C(c2ccc(F)cc2)c2ccc(F)cc2)CC1` [Cpd 10, N-[2-[4-[bis(4-fluorophenyl)methyl]-1-piperazinyl]-5-(hydroxymethyl)phenyl]-N′-phenyl-urea], the IC50 is greater than 10 µM.
Take `CCCCS(=O)(=O)Nc1cc(C(=O)N2CCNCC2)ccc1N1CCN(C(c2ccccc2)c2ccccc2)CC1` [Cpd 7, N-[2-[4-(diphenylmethyl)-1-piperazinyl]-5-(1-piperazinylcarbonyl)phenyl]-1-butanesulfonamide]: the half-maximal inhibitory concentration (IC50) is greater than 25 µM.
Consider `Cc1ccc(C(=O)Nc2cc(C(=O)N3CCNCC3)ccc2N2CCN(C(c3ccccc3)c3ccccc3)CC2)cc1` [Cpd 1, N-[2-[4-(diphenylmethyl)-1-piperazinyl]-5-(1-piperazinylcarbonyl)phenyl]-4-methyl-benzamide], for which the IC50 turned out to be 12.6 µM.
In the case of `CCC(=O)Nc1cc(C(=O)N2CCNCC2)ccc1N1CCN(C(c2ccccc2)c2ccccc2)CC1` [Cpd 4, N-[2-[4-(diphenylmethyl)-1-piperazinyl]-5-(1-piperazinylcarbonyl)phenyl]-propanamide], the IC50 is greater than 25 µM.
Regarding `O=C(c1ccc(N2CCN(C(c3ccccc3)c3ccccc3)CC2)c(NS(=O)(=O)c2ccc(Cl)cc2)c1)N1CCNCC1` [Cpd 6, 4-chloro-N-[2-[4-(diphenylmethyl)-1-piperazinyl]-5-(1-piperazinylcarbonyl)phenyl]-benzenesulfonamide], the IC50 worked out at 8.7 µM.
Same read-out and setting: the value for `COC(=O)c1ccc(N2CCN(C(c3ccc(F)cc3)c3ccc(F)cc3)CC2)c(NC(=O)Nc2ccccc2)c1` [Cpd 11, 4-[4-[bis(4-fluorophenyl)methyl]-1-piperazinyl]-3-[[(phenylamino)carbonyl]amino]-benzoic acid methyl ester] was greater than 10 µM; that for `CS(=O)(=O)c1ccc(N2CCN(C(c3ccccc3)c3ccccc3)CC2)c(NC(=O)Nc2ccccc2)c1` [Cpd 9, N-[2-[4-(diphenylmethyl)-1-piperazinyl]-5-(methylsulfonyl)phenyl]-N′-phenyl-urea] was greater than 10 µM.
Turning to `Cc1oc(-c2ccc(Cl)cc2)cc1C(=O)Nc1cc(C(=O)N2CCNCC2)ccc1N1CCN(C(c2ccccc2)c2ccccc2)CC1` [Cpd 2, 5-(4-chlorophenyl)-N-[2-[4-(diphenylmethyl)-1-piperazinyl]-5-(1-piperazinylcarbonyl)phenyl]-2-methyl-3-furancarboxamide], the concentration for half-maximal inhibition (IC50) was determined as 17.4 µM.
`Cc1ccc(S(=O)(=O)Nc2cc(C(=O)N3CCNCC3)ccc2N2CCN(C(c3ccccc3)c3ccccc3)CC2)cc1` [Cpd 5, N-[2-[4-(diphenylmethyl)-1-piperazinyl]-5-(1-piperazinylcarbonyl)phenyl]-4-methyl-benzenesulfonamide]: the half-inhibitory concentration (IC50) was determined as 10.8 µM.
As for `CS(=O)(=O)Nc1cc(C(=O)N2CCNCC2)ccc1N1CCN(C(c2ccccc2)c2ccccc2)CC1` [Cpd 8, N-[2-[4-(diphenylmethyl)-1-piperazinyl]-5-(1-piperazinylcarbonyl)phenyl]-methanesulfonamide], the concentration for half-maximal inhibition (IC50) was found to be 9.8 µM.
`O=C(Nc1cc(C(=O)N2CCNCC2)ccc1N1CCN(C(c2ccccc2)c2ccccc2)CC1)c1ccco1` [Cpd 3, N-[2-[4-(diphenylmethyl)-1-piperazinyl]-5-(1-piperazinylcarbonyl)phenyl]-2-furancarboxamide]: the concentration for half-maximal inhibition (IC50) came out at 21.6 µM.

The same assay, now with this note: printed in brackets beside IC50 >10 μM; test concentration not stated.
`O=C(Nc1ccccc1)Nc1cc(CO)ccc1N1CCN(C(c2ccc(F)cc2)c2ccc(F)cc2)CC1` [Cpd 10, N-[2-[4-[bis(4-fluorophenyl)methyl]-1-piperazinyl]-5-(hydroxymethyl)phenyl]-N′-phenyl-urea] displayed an inhibition at up to 10 µM of 47%.
The same measure, in the same setting: the value for `CS(=O)(=O)c1ccc(N2CCN(C(c3ccccc3)c3ccccc3)CC2)c(NC(=O)Nc2ccccc2)c1` [Cpd 9, N-[2-[4-(diphenylmethyl)-1-piperazinyl]-5-(methylsulfonyl)phenyl]-N′-phenyl-urea] was 60%.

The record behind these values is patent US7262197B2, “Phospholipase C inhibitors for use in treating inflammatory disorders” (Janssen Pharmaceutica, N.V, priority 2003, dated 2007).
